Experimental findings from paper PMC3498381, “Isolated Toll-like Receptor Transmembrane Domains Are Capable of Oligomerization” (PLoS ONE, 2012) are described below.

No end group written: not given here.

Assay [1] deals with TLR6 TMD (functional ToxR chimera). Put plainly: Dominant-negative (heterotypic) ToxR assay, TLR6 as dominant phenotype. To be noted: Miller units normalized to poly-Leu* = 1 and corrected for expression, lower = stronger interaction, N in table. In kind it is cell-based, E. coli. From the text:
Next, we investigated heterotypic interactions of the TLRs. We specifically studied TLR2, TLR1, and TLR6 because they are cell surface expressed receptors known to form functional heterodimers. To determine the ability of these three cell surface TLRs to have heterotypic interactions within its family, we studied the ability of the TLR1, TLR2, and TLR6 TMDs to interact with the TLR receptors also expressed at the cell surface; namely, TLR1, TLR2, TLR4, TLR5, TLR6, and TLR10. We monitored these interactions using a dominant-negative ToxR assay (Fig. S1B) which works by having a second TMD expressed with a non-functional ToxR* intracellular domain. This ToxR* domain is incapable of binding the ctx promoter making any interactions with this second expressed TMD unable to produce the reporter enzyme. As such, any interaction between the functional ToxR and non-functional ToxR* TMDs will result in a reduction in signal output.
Figure 3 Cell- Surface Toll-like Recptor Heterotypic Interactions. (A) A dominant-negative ToxR assay was used to study heterotypic interactions of the cell-surface TLRs. Two TLR TMDs were encoded in the FHK12 E.coli reporter strain, one with a functional ToxR domain (dominant phenotype) and one with a nonfunctional ToxR* domain (negative phenotype). Interaction between the two different TMDs leads to a reduction in signal from that seen for homotypic interactions. The TMDs for GpA, TLR1, TLR2, and TLR6 were used with the functional ToxR domain while TMDs for poly-Leucine, TMD5, integrin αIIb, TLR1, TLR2, TLR4, TLR5, TLR6, and TLR10 were used with the nonfunctional ToxR* domain. Interactions were most prominent for the TLRs known to have heterotypic interactions – TLR2-TLR1 and TLR2-TLR6. […] We also saw interaction with the same TMD further validating the homotypic interactions. […] Each dominant phenotype was done in 3 technical replicates with each negative phenotype and >6 measurements made for each replicate. Error bars depict the standard error of the mean (n- Tables S3, S5, S7, S9). Western blots staining for MBP were performed to monitor expression levels of the constructs with the upper band being functional ToxR chimeras and the lower band being nonfunctional ToxR* chimeras – (B) GpA, (C) TLR1, (D) TLR2, and (E) TLR6. Significant differences for the same dominant phenotype were determined by use of the Tukey-Kramer test.
For heterotypic interactions one plasmid containing a functional ToxR domain (200 ng) and a second plasmid containing a non-functional ToxR* domain (200 ng) were co-transformed into chemically competent FHK12 E. coli (400 µL) by incubating on ice for 30 min, heat shock at 42°C for 90 s, incubation on ice for 2 min, and addition of SOC media (1600 µL) followed by incubation with shaking for 1 h at 37°C. This transformation mixture (50 µL) was then used to spread LB-agar plates containing cholaramphenicol (30 µg/mL), kanamycin (33 µg/mL), and ampicillin (100 µg/mL) and grown overnight at 37°C. Single colonies were selected from the plates and grown in 5 mL LB media containing cholaramphenicol (30 µg/mL), kanamycin (33 µg/mL), ampicillin (100 µg/mL), and arabinose (0.0025%) overnight (16–20 h) with shaking at 37°C. Analysis of activity was monitored as described in homotypic ToxR assays. Western blotting was done in the same manner as the homotypic ToxR assay with one band appearing for the functional ToxR construct and a second band for the nonfunctional ToxR* construct. Data were normalized to poly-Leu* Miller Units and corrected for varying protein expression levels using ImageJ (NIH) as previously reported.

The test system of assay [2] is homotypic interaction of the same TMD peptide. Put plainly: Fluorescence self-quenching assay in C14-betaine micelles. In kind it is binding, human. The note with it: from molar fraction Kd compared with known ranges of TMD interactions. The source says: An apparent dissociation constant (Kd) can be determined from self-quenching interactions by varying the amount of detergent present for a fixed peptide concentration. At low detergent:peptide ratios, the TMD peptides are driven to interact; however, gradually increasing the amount of detergent present at a fixed peptide concentration will cause the TMD interactions to dissociate. Then, at some critical detergent:peptide ratio, the interaction is completely dissociated and the fluorescence plateaus. […] Fitting the data results in apparent dissociation constants, Kd, in terms of a dimensionless detergent:peptide ratio (molar fraction) as this ratio, instead of the bulk concentration, is more relevant to TMD peptide association. For TLR1 the Kd was determined to be 645.63±49.08, for TLR6 the Kd was determined to be 883.57±86.92 and for TLR2 the Kd was determined to be 4475.5±637.9. […]
Figure 5 TLR1, TLR2, and TLR6 Homotypic Interactions by Fluorescence Self-Quenching. […] Homotypic interaction affinity was studied by changes of fluorescence intensity at different molar ratios of detergent to peptide. […] Increasing detergent competes off the TMD-TMD interactions and leads to an increase in fluorescence signal. […] Kd were determined using the Hill Equation.
Fluorescence self-quenching was used to directly probe the homotypic interactions of the synthetic peptides. […] Peptide concentrations of these samples were determined by UV-VIS and adjusted with the corresponding C14-Betaine only buffers such that all peptide concentrations were 1 µM. […] Samples were allowed to equilibrate in the 96-well plate at room temperature for 2 h before measurement using a Beckman-Coulter DTX 880 Multimode Detector plate reader. […] Each data point is blank corrected for the corresponding C14-Betaine only signal and are the average of 3 different readings. To scale the data from 0 to 1, the initial data point was averaged and set to be zero by subtracting from all further readings, and the data points that are in the plateau region were averaged and then all values were divided by this average to get a maximum of 1. […]

In the case of “TLR6*: TLR6 TMD chimera with nonfunctional ToxR* domain (negative phenotype) (GNRASITLLIVTIGATMLVLAVTVTSLCIYLGSLIN; also: fused to non-functional ToxR* (S87H) and maltose binding protein, ends not given here)”, the “Mean TLR6-TMD* heterotypic interaction (ToxR signal)” value in assay [1] worked out at 0.2564. Besides, in assay [2], the “Classification of homotypic interaction strength” value (“Classification” below) was “weak”.

Turning to “TLR1*: TLR1 TMD chimera with nonfunctional ToxR* domain (negative phenotype) (GNRASITLLIVTIVATMLVLAVTVTSLCSYLGSLIN; also: fused to non-functional ToxR* (S87H) and maltose binding protein, ends not given here)”, in assay [1], the “Mean TLR6-TMD* heterotypic interaction (ToxR signal)” value stood at 0.3316. Also, the “Classification” value in assay [2] is recorded as “weak”.

On to “TLR2*: TLR2 TMD chimera with nonfunctional ToxR* domain (negative phenotype) (GNRASALVSGMCCALFLLILLTGVLCGSLIN; cysteine pairing not given here; also: fused to non-functional ToxR* (S87H) and maltose binding protein, ends not given here)”, for which the “Mean TLR6-TMD* heterotypic interaction (ToxR signal)” value in assay [1] stood at 0.2802. Further, in assay [2], the “Classification” value is reported as “moderately strong”.
